≈ marks a conversion by molar mass, not a printed value.
Tests used:
Bibionidae = conditions: chronic/long-term; duration: 28 days; development
Anas platyrhynchos = conditions: acute; oral; unspecified; mortality
Folsomia candida = conditions: chronic/long-term; duration: 28 days
Tagia sp. = conditions: acute; duration: 14 days; mortality
Apis mellifera = conditions: acute, mortality
Phasianus sp. = conditions: acute; oral; unspecified; mortality
Daphnia magna = conditions: chronic/long-term; duration: 21 days; mortality
Canidae = conditions: chronic; duration: 1 years; oral; Dog Other; organ weight
Lepomis macrochirus = conditions: acute; duration: 96 hours; mortality
Oncorhynchus mykiss = conditions: chronic/long-term; duration: 21 days; mortality

## CC(Cc1ccc(C(C)(C)C)cc1)CN1CCCCC1 (stereo unspecified) [Fenpropidin]
Bibionidae
  NOEC: 1 mg/L
Anas platyrhynchos
  LD50: 1900 mg/kg-day
Folsomia candida
  NOEC: 46.5 mg/kg
Tagia sp.
  LC50: > 500 mg/kg
Apis mellifera; dermal
  LD50: 46 µg/piece
Apis mellifera; oral, unspecified
  LD50: > 10 µg/piece
Phasianus sp.
  LD50: 369 mg/kg-day
Daphnia magna
  NOEC: 0.32 mg/L
Canidae
  NOAEL: 2 mg/kg-day
Lepomis macrochirus
  LC50: 1.9 µg/mL (≈ 6.95 µM)
Colinus virginianus; acute, oral, diet, mortality
  LD50: > 1420 mg/kg-day
Colinus virginianus; reproduction developmental
  NOAEL: 14.6 mg/kg-day
Rattus norvegicus; acute, mortality
  LD50: 1450 mg/kg-day
Rattus norvegicus; chronic, duration: 2 years, body weight
  NOAEL: 2.27 mg/kg-day
Rattus norvegicus; reproduction developmental
  NOAEL: 60.2 mg/kg-day
Oncorhynchus mykiss
  NOEC: 0.32 mg/L

Reference: EPA's ToxValDB 9.5 (doi:10.2903/j.efsa.2008.124r)
